Data published in paper PMC8205491, “Tetrahydroxanthohumol, a xanthohumol derivative, attenuates high-fat diet-induced hepatic steatosis by antagonizing PPARγ” (eLife, 2021).

The compounds below were run against T1, PPARγ (Homo sapiens, UniProt P37231) (assay: LanthaScreen TR-FRET competitive binding assay (displacement of Fluormone Pan-PPAR Green)).
T1 construct: gene PPARG
T1 sequence (P37231 235-505 limits assumed): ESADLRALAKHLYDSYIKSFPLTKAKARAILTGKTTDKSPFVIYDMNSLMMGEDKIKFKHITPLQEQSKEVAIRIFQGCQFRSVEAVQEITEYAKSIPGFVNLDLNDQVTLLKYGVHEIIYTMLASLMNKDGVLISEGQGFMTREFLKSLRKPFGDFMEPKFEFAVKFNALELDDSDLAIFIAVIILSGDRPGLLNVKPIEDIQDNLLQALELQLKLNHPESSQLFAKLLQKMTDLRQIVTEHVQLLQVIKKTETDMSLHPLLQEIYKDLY

Row | Structure (SMILES) | IC50 [nM]
1 | CCCCCCCC/C=C\CCCCCCCC(=O)O [Oleic acid] | 16600
2 | COc1cc(O)c(CCC(C)C)c(O)c1C(=O)CCc1ccc(O)cc1 [TXN, Tetrahydroxanthohumol] | 1380
3 | COc1cc(O)c(CC=C(C)C)c(O)c1C(=O)/C=C/c1ccc(O)cc1 [XN, Xanthohumol] | 1970
